Assay type in all cases: biochemical
The target of test [1] is PKC alpha (Homo sapiens, UniProt P17252). As to the kind of experiment: PKC Enzyme Assay, alpha. How it is done:
(§1) PKC enzymes=alpha, beta I, beta II, gamma, delta, epsilon, eta and zeta
(§2) Assay components in a total volume of 250 μL are the following:
(§3) Vesicles consisting of 120 μg/mL phosphatidylserine (Avanti Polar Lipids) and sufficient diacylglycerol (Avanti Polar Lipids) to activate the enzyme to maximum activity in 20 mM HEPES buffer (Sigma, St. Louis, Mo.), pH 7.5, 940 μM calcium chloride (Sigma, St. Louis, Mo.) for assaying the alpha, beta I, beta II and gamma enzyme only, 1 mM EGTA for all the enzymes, 10 mM magnesium chloride (Sigma, St. Louis, Mo.) and 30 μM (gamma-32P) ATP (DuPont). For all the enzymes either histone type HL (Worthington) or myelin basic protein is used as substrate. The assay is started by addition of protein kinase C enzyme incubated at 30° C. for 10 minutes and stopped by adding 0.5 mL of cold trichloroacetic acid (Amresco) followed by 100 μL of 1 mg/mL bovine serum albumin (Sigma, St. Louis, Mo.). The precipitate is collected by vacuum filtration on glass fiber filters employing a TOMTEC™ filtration system and quantified by counting in a beta scintillation counter.

For test [2], the target named is PKC beta I (Homo sapiens, UniProt P05771). Description: PKC Enzyme Assay, beta I. Particulars: Table 1; read-out: IC50 β1. As to the method:
as §1, §2, §3

For test [3], the target named is PKC beta II (Homo sapiens, UniProt P05771). As to the kind of experiment: PKC Enzyme Assay, beta II. As to the method: as §1, §2, §3
Chain of PKC beta II (P05771 1-673 isoform P05771-2): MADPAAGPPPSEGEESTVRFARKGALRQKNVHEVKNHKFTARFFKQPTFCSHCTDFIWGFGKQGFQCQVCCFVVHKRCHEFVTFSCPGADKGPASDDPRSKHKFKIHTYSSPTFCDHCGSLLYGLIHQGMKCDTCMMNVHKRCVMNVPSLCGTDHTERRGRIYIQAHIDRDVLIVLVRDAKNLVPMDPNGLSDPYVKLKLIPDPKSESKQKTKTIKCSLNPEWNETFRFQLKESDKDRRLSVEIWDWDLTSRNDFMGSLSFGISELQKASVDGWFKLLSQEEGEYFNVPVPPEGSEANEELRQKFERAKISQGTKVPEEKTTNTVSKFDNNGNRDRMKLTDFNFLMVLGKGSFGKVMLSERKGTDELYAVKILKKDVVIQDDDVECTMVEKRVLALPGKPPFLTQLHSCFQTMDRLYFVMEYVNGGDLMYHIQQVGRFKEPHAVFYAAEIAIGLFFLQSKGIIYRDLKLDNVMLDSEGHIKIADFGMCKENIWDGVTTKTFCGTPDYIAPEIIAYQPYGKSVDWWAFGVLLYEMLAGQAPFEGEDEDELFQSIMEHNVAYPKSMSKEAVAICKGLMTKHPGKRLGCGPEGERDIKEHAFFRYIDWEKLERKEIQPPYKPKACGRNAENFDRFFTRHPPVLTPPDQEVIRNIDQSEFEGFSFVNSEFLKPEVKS
Test [4] deals with PKC gamma (Homo sapiens, UniProt P05129). As to the kind of experiment: PKC Enzyme Assay, gamma. The note with it: Table 1.
For test [5], the target named is PKC delta (Homo sapiens, UniProt Q05655). As to the kind of experiment: PKC Enzyme Assay, delta. Particulars: Table 1.
Chain of PKC delta (Q05655 whole entry): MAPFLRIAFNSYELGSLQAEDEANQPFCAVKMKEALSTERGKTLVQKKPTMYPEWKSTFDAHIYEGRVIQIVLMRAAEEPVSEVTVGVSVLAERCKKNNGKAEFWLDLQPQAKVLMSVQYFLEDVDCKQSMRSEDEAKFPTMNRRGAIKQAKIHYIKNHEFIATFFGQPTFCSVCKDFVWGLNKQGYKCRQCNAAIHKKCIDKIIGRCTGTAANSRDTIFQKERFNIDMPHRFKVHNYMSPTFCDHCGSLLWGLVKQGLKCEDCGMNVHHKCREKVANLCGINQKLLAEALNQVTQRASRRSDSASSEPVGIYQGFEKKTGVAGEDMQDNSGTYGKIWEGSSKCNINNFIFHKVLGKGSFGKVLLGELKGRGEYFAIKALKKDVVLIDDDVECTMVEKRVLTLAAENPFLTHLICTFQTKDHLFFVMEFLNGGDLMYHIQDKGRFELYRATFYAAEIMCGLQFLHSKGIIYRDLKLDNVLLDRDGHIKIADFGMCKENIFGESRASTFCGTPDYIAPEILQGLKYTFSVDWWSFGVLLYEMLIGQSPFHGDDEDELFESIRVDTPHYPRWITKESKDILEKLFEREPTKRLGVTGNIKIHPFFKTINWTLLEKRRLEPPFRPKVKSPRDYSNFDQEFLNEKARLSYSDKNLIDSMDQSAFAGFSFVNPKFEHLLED
Test [6] has as its target T1, PKC zeta (Homo sapiens, UniProt Q05513).
T1 sequence (Q05513 1-592): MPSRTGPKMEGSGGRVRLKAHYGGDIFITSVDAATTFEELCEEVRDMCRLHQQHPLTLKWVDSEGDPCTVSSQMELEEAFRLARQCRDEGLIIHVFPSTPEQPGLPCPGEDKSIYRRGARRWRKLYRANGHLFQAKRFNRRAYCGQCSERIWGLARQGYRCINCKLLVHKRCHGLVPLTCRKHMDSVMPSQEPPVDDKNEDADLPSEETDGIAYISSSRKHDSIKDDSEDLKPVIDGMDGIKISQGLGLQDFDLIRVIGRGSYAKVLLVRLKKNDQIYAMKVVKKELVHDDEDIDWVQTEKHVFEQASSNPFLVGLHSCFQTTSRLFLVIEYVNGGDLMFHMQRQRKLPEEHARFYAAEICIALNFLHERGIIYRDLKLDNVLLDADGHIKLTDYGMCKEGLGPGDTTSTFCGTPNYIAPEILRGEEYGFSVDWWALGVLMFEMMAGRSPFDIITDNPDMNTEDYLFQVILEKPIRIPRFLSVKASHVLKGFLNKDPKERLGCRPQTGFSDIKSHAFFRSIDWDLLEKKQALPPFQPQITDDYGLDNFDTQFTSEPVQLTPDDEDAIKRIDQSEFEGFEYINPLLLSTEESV
Description: PKC Enzyme Assay, zeta. Particulars: Table 1. How it is done: as §1, §2, §3

Like-named read-outs stand apart in the source and are kept apart here. Bounds are passed on as bounds.

Chain of PKC beta I (P05771 whole entry): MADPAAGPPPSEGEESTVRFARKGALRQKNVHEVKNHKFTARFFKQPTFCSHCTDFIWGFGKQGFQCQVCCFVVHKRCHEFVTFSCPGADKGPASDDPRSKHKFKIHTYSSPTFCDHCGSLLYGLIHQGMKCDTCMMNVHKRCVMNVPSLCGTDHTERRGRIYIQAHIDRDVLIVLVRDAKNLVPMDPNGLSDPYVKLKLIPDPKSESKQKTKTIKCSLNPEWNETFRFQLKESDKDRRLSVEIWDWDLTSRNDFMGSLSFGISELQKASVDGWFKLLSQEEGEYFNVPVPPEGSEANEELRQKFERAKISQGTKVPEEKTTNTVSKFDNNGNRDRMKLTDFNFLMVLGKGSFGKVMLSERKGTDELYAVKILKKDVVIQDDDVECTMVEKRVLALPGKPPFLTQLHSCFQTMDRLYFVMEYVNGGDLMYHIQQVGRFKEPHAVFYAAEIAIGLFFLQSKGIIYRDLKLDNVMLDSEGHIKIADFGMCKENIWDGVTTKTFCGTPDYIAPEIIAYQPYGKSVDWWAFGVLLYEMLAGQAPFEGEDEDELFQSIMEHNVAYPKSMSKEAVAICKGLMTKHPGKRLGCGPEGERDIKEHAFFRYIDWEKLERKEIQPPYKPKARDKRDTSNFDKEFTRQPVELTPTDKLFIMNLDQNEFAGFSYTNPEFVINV

On to `CC(C)(C)OC(=O)NCC(=O)n1cc(C2=C(c3cn(CCCN=[N+]=[N-])c4ccccc34)C(=O)NC2=O)c2ccccc21` [Example 1, 3-[1-(3-azidopropyl)-3-indolyl]-4-[(1-N-^t BOC)-glycine-3-indolyl]-1H-pyrrol-2,5-dione], for which the IC50 in test [1] (read-out: IC50 with respect to the alpha protein kinase C isozyme) is 1.4 µM; in test [2] it was 0.26 µM; in test [3] (read-out: 50% inhibition at a concentration for the beta-2 isozyme) it was 31 nM; in test [4], 19 µM; in test [5] it was 4.6 µM; in test [6] it was 100 µM.

Take `CC(C)(C)OC(=O)N[C@@H](Cc1ccccc1)C(=O)n1cc(C2=C(c3cn(C(=O)[C@H](Cc4ccccc4)NC(=O)OC(C)(C)C)c4ccccc34)C(=O)NC2=O)c2ccccc21` [Example 3, 3,4-Bis[(1-N-^t BOC)-phenylalanine-3-indolyl]-1H-pyrrol-2,5-dione]: the IC50 was 83 µM in test [1] (Table 1, read-out: IC50 α); 8 µM in test [2]; 2600 nM in test [3] (Table 1, read-out: IC50 β2); more than 100 µM in test [4]; more than 100 µM in test [5]; more than 100 µM in test [6].

Source of the values: patent publication US5491242A, “Protein kinase C inhibitors” (Eli Lilly and Company, priority 1995, dated 1996).
